Several values for one entry are separate records, joined by “and”; a condition that tells them apart may be missing. Identical values can stand only once.
Columns and labels:
[1] = Antioxidant assay: oxygen radical absorbance capacity fluorescein (ORAC-FL) method; settings: AAPH 12 mM, fluorescein 150 nM, pH 7.4, 37°C, samples 1–10 μM
Method: The modified oxygen radical absorbance capacity fluorescein (ORAC-FL) method was performed to determine the antioxidant activity (Ou et al., [2001]; Dávalos et al., [2004]). The reaction was diluted with 75 mM phosphate buffer (pH = 7.4), and the volume of the final reaction mixture was 200 μL in well. Test compound (20 μL) and fluorescein (120 μL, 150 nM final concentration) were placed in the well of a black 96 well optical bottom plates. After the mixture was incubated at 37°C for 15 min, AAPH solution (60 μL, 12 mM final concentration) was added rapidly. The plate was placed in a Spectrafluor Plus plate reader (Tecan, Crailsheim, Germany) and the fluorescence was recorded every minute for 4 h with an excitation wavelength at 485 nm and emission wavelength at 535 nm. Trolox was used as standard (1–8 μM, final concentration). A blank (fluorescein + AAPH) with phosphate buffer instead of test compounds and trolox calibration were performed for the assays of antioxidants. The samples were measured at different concentration (1–10 μM). All the reaction mixtures were prepared fourfold, and at least three independent assays were performed for each sample. Fluorescence in time course was normalized on basis of the blank (without antioxidants). The ORAC-FL values were calculated as the reported method. Final ORAC-FL values were expressed in μM of trolox equivalents. Ferulic acid was used as the positive reference compound, showing an ORAC-FL value of 1.6 trolox equivalents.

[2] = target: T1, PDE10A catalytic domain (residues 446-789) (Homo sapiens, UniProt Q9Y233); assay: PDE10A enzymatic assay (3H-cGMP hydrolysis, scintillation counting); assay type: biochemical; settings: for inhibition at 1 µM: compound concentration 1 μM, read-out: PDE10 inhibitory assay Inhibition ratio (1 μM) (%); for IC50: mean of three independent determinations, 3H-cGMP substrate, read-out: PDE10 inhibitory assay IC50
T1 construct: coding the catalytic domain (residues 446-789); inferred from the pET15b vector and the Ni-NTA purification) (N); made in house; host or cells: E. coli BL21 (Codonplus, Stratagene)
Method: The recombinant pET15b-PDE10A plasmid coding the catalytic domain (residues 446-789) was subcloned and purified according to the following protocols previously reported (Li et al., [2015]). Then it was transferred into E. coli strain BL21 (Codonplus, Stratagene). The E. coli cells carrying the recombinant plasmid were cultured in an 2XYT medium (containing 100 μg/mL ampicillin and 30 μg/mL chloramphenicol) at 37°C until OD600 = 0.6-0.8. And then, 1 mM isopropyl-β-D-thiogalactopyranoside was added in to induce the PDE10A protein expression at 20°C for 24 h. The nickel nitriloacetic acid (Ni-NTA) column (Qiagen) was used for purifying PDE10A proteins. The concentration of the PDE10 fractions was estimated based on the absorbance at 280 nm (calculated by the ProtParam software).
The enzymatic activities of the catalytic domains of PDE10A were performed using ^3H-cGMP solution in the assay buffer of 50 mM Tris pH = 7.5, 4 mM MgCl2, 1 mM DTT, and ^3H-cGMP giving 20,000–30,000 cpm after the reaction terminated per assay. To a solution (DMSO) of test compounds in different concentration, the PDE10A enzyme in the assay buffer was added to perform the enzymatic reaction and then incubated at room temperature for 15 min. The assay was then terminated by addition of 0.2 M ZnSO4, Subsequently, 0.2 N Ba(OH)2 was added to precipitate the reaction product ^3H-GMP, whereas unreacted ^3H-cGMP remained in the supernatant. The radioactivity in the supernatant was measured in 2.5 mL Ultima Gold liquid scintillation cocktails (PerkinElmer) by a liquid scintillation counter (PerkinElmer 2910). The IC50 values of test compounds at PDE10A enzymes were measured by repeating of three independent experiments using the nonlinear regression method.

PDE10A = test system: PDE10A; design: method as in Siuciak et al., 2006a; settings: ref Siuciak et al., 2006a; read-out: IC50 toward PDE10A; cited from earlier work

T1 sequence (Q9Y233 712-1055): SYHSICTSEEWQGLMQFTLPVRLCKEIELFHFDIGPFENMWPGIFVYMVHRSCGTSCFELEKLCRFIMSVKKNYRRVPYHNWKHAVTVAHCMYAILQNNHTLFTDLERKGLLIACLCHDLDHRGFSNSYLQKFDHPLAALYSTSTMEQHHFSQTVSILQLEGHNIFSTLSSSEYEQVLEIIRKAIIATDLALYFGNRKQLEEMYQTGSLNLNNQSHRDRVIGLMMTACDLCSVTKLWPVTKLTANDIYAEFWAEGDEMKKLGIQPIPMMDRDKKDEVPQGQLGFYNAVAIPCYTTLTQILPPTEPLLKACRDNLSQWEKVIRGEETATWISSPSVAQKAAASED

inhibition at 1 µM [2] [%]	IC50 [2]	Structure (SMILES)	ORAC (oxygen radical absorbance capacity) [1]	IC50 (PDE10A) [µM]
56	–	COc1ccc2[nH]cc(CC(C)Nc3ncnc4cc(OC)c(OC)cc34)c2c1 (stereo not drawn) [Compound 11d, 6,7-dimethoxy-N-(1-(5-methoxy-1H-indol-3-yl)propan-2-yl)quinazolin-4-amine]	1.3 trolox equivalents and 1.3 ± 0.1 trolox equivalents	–
66	–	COc1cc2ncnc(NCCc3c[nH]c4ccc(Br)cc34)c2cc1OC [Compound 11h, N-(2-(5-bromo-1H-indol-3-yl)ethyl)-6,7-dimethoxyquinazolin-4-amine]	1.9 ± 0.1 trolox equivalents	–
26	–	COc1cc2ncnc(N3CCOCC3)c2cc1OC(=O)C=Cc1ccc(O)cc1 [Compound 8b, 7-methoxy-4-morpholinoquinazolin-6-yl 3-(4-hydroxyphenyl)acrylate]	3.3 trolox equivalents and 3.3 ± 0.1 trolox equivalents	–
–	–	COc1ccc(Cc2nccc3cc(OC)c(OC)cc23)cc1OC [Papaverine]	–	0.01 to 0.3
24	–	COc1cc2ncnc(N3CCOCC3)c2cc1OC(=O)CCCCC1CCSS1 (stereo not drawn) [Compound 8c, 7-methoxy-4-morpholinoquinazolin-6-yl 5-(1,2-dithiolan-3-yl)pentanoate]	0.3 ± 0.01 trolox equivalents	–
80	< 1 µM and 0.68 µM	COc1cc2ncnc(NCCc3nc4ccccc4[nH]3)c2cc1OC [Compound 13, N-(2-(1H-benzo[d]imidazol-2-yl)ethyl)-6,7-dimethoxyquinazolin-4-amine]	0.15 ± 0.02 trolox equivalents	–
72	< 1 µM and 0.76 µM	COc1cc2ncnc(NCCc3c[nH]c4ccccc34)c2cc1OC [Compound 11a, N-(2-(1H-indol-3-yl)ethyl)-6,7-dimethoxyquinazolin-4-amine]	1.3 ± 0.1 trolox equivalents	–
84	< 1 µM and 0.24 µM	COc1cc2ncnc(NC(C)CCc3c[nH]c4ccccc34)c2cc1OC (stereo not drawn) [Compound 12]	1.3 trolox equivalents and 1.3 ± 0.2 trolox equivalents	–
64	–	COc1cc2ncnc(NCCc3c[nH]c4ccc(C)cc34)c2cc1OC [Compound 11g, 6,7-dimethoxy-N-(2-(5-methyl-1H-indol-3-Yl)ethyl)quinazolin-4-amine]	1.0 ± 0.2 trolox equivalents	–
57	–	COc1cc2ncnc(N3CCOCC3)c2cc1OCCc1c[nH]c2ccccc12 [Compound 8a, 4-(6-(2-(1H-indol-3-yl)ethoxy)-7-methoxyquinazolin-4-yl) morpholine]	1.0 trolox equivalents and 1.0 ± 0.1 trolox equivalents	–
49	–	COc1ccc2[nH]cc(CCNc3ncnc4cc(OC)c(OC)cc34)c2c1 [Compound 11c, 6,7-dimethoxy-N-(2-(5-methoxy-1H-indol-3-yl)ethyl)quinazolin-4-amine]	2.2 trolox equivalents and 2.2 ± 0.03 trolox equivalents	–
66	–	COc1cc2ncnc(NC(C)Cc3c[nH]c4ccccc34)c2cc1OC (stereo not drawn) [Compound 11b, N-(1-(1H-indol-3-yl)propan-2-yl)-6,7-dimethoxyquinazolin-4-amine]	1.5 ± 0.1 trolox equivalents	–
–	–	COc1cc(/C=C/C(=O)O)ccc1O [Ferulic acid, reference compound]	1.6 trolox equivalents and 1.6 ± 0.1 trolox equivalents	–
76	< 1 µM and 0.64 µM	COc1cc2ncnc(NCCc3c[nH]c4ccc(O)cc34)c2cc1OC [Compound 11e, 3-(2-((6,7-dimethoxyquinazolin-4-yl)amino)ethyl)-1H-indol-5-ol]	2.3 trolox equivalents and 2.3 ± 0.2 trolox equivalents	–
78	< 1 µM and 0.33 µM	COc1cc2ncnc(NCCc3c[nH]c4cc(F)ccc34)c2cc1OC [Compound 11f, N-(2-(6-fluoro-1H-indol-3-yl)ethyl)-6,7-dimethoxyquinazolin-4-amine]	1.0 trolox equivalents and 1.0 ± 0.1 trolox equivalents	–

Reference: article PMC5962708, “Structure-Based Design, Synthesis, Biological Evaluation, and Molecular Docking of Novel PDE10 Inhibitors With Antioxidant Activities” (Frontiers in Chemistry, 2018)
